This is an account of results in PubChem BioAssay AID248 (DTP/NCI, 2004).

SMILES strings stand for the structures. Toxic doses and inconclusive results are not listed.

This test concerns L1210 leukemia ip in BDF1 mice, survival T/C. As to the kind of experiment: NCI In Vivo Anticancer Drug Screen. Data for tumor model L1210 Leukemia (intraperitoneal) in B6D2F1 (BDF1) mice. As to conditions: endpoint: mean survival time, higher = longer survival. A digest of the protocol: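 In this screen, tumor-bearing mice given compound are compared to those given vehicle, and their survival values are reported as a treated-to-control quotient.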

Take `CCC1CN2CCc3cc(OC)c(OC)cc3C2CC1CC1c2cc(OC)c(OC)cc2CCN1C(=O)C(Cc1c[nH]c2ccccc12)NC(=O)OC(C)(C)C` (centres undefined): the T/C (dose: 4.0 mg/kg/injection, schedule: Q03HX008 (ip), vehicle: saline with Tween-80) was 100 % of control; the T/C (dose: 4.0 mg/kg/injection, schedule: Q03HX016 (ip), vehicle: saline with Tween-80) is 93 % of control; the T/C (dose: 4.0 mg/kg/injection, schedule: Q03HX024 (ip), vehicle: saline with Tween-80) is 101 % of control; the T/C (dose: 8.0 mg/kg/injection, schedule: Q03HX008 (ip), vehicle: saline with Tween-80) is 105 % of control; the T/C (dose: 8.0 mg/kg/injection, schedule: Q03HX016 (ip), vehicle: saline with Tween-80) is 101 % of control; the T/C (dose: 8.0 mg/kg/injection, schedule: Q03HX024 (ip), vehicle: saline with Tween-80) was 98 % of control. In addition, the T/C is, setting by setting: (dose: 16.0 mg/kg/injection, schedule: Q01DX009 (oral), vehicle: saline with Tween-80) 112 % of control; (dose: 16.0 mg/kg/injection, schedule: Q03HX008 (ip), vehicle: saline with Tween-80) 101 % of control; (dose: 16.0 mg/kg/injection, schedule: Q03HX016 (ip), vehicle: saline with Tween-80) 100 % of control; (dose: 16.0 mg/kg/injection, schedule: Q03HX024 (ip), vehicle: saline with Tween-80) 97 % of control; (dose: 32.0 mg/kg/injection, schedule: Q01DX005 (ip), vehicle: saline with Tween-80) 95 % of control; (dose: 32.0 mg/kg/injection, schedule: Q01DX009 (ip), vehicle: saline with Tween-80) 104 % of control. The T/C was 114 % of control (dose: 32.0 mg/kg/injection, schedule: Q01DX009 (oral), vehicle: saline with Tween-80); 92 % of control (dose: 32.0 mg/kg/injection, schedule: Q03HX008 (ip), vehicle: saline with Tween-80); 97 % of control (dose: 32.0 mg/kg/injection, schedule: Q03HX016 (ip), vehicle: saline with Tween-80); 98 % of control (dose: 32.0 mg/kg/injection, schedule: Q03HX024 (ip), vehicle: saline with Tween-80); 162 % of control (dose: 32.0 mg/kg/injection, schedule: Q04DX003 (ip), vehicle: saline with Tween-80); 95 % of control (dose: 37.5 mg/kg/injection, schedule: Q01DX009 (ip), vehicle: saline). The T/C reads like this: (dose: 64.0 mg/kg/injection, schedule: Q01DX001 (ip), vehicle: saline with Tween-80) 100 % of control; (dose: 64.0 mg/kg/injection, schedule: Q01DX005 (ip), vehicle: saline with Tween-80) 102 % of control; (dose: 64.0 mg/kg/injection, schedule: Q01DX009 (ip), vehicle: saline with Tween-80) 100 % of control; (dose: 64.0 mg/kg/injection, schedule: Q01DX009 (oral), vehicle: saline with Tween-80) 114 % of control; (dose: 64.0 mg/kg/injection, schedule: Q04DX003 (ip), vehicle: saline with Tween-80) 97 % of control; (dose: 64.0 mg/kg/injection, schedule: Q08DX002 (ip), vehicle: saline with Tween-80) 98 % of control. The T/C was 103 % of control (dose: 75.0 mg/kg/injection, schedule: Q01DX009 (ip), vehicle: saline); 115 % of control (dose: 89.0 mg/kg/injection, schedule: Q01DX001 (ip), vehicle: saline); 102 % of control (dose: 128.0 mg/kg/injection, schedule: Q01DX001 (ip), vehicle: saline with Tween-80); 101 % of control (dose: 128.0 mg/kg/injection, schedule: Q01DX005 (ip), vehicle: saline with Tween-80); 105 % of control (dose: 128.0 mg/kg/injection, schedule: Q01DX009 (ip), vehicle: saline with Tween-80); 105 % of control (dose: 128.0 mg/kg/injection, schedule: Q04DX003 (ip), vehicle: saline with Tween-80). Further, the T/C is 95 % of control (dose: 128.0 mg/kg/injection, schedule: Q08DX002 (ip), vehicle: saline with Tween-80); 97 % of control (dose: 256.0 mg/kg/injection, schedule: Q01DX001 (ip), vehicle: saline with Tween-80); 118 % of control (dose: 256.0 mg/kg/injection, schedule: Q01DX009 (oral), vehicle: saline with Tween-80); 96 % of control (dose: 256.0 mg/kg/injection, schedule: Q04DX003 (ip), vehicle: saline with Tween-80); 98 % of control (dose: 256.0 mg/kg/injection, schedule: Q08DX002 (ip), vehicle: saline with Tween-80); 90 % of control (dose: 300.0 mg/kg/injection, schedule: Q01DX009 (ip), vehicle: saline). Moreover, the T/C is, setting by setting: (dose: 512.0 mg/kg/injection, schedule: Q01DX001 (ip), vehicle: saline with Tween-80) 102 % of control; (dose: 512.0 mg/kg/injection, schedule: Q08DX002 (ip), vehicle: saline with Tween-80) 106 % of control.
On to `C=CCCC[P+](c1ccccc1)(c1ccccc1)c1ccccc1`, for which the T/C is 95 % of control (dose: 3.13 mg/kg/injection, schedule: Q01DX009 (ip), vehicle: saline); 103 % of control (dose: 6.25 mg/kg/injection, schedule: Q01DX009 (ip), vehicle: saline); 108 % of control (dose: 12.5 mg/kg/injection, schedule: Q01DX009 (ip), vehicle: saline with Tween-80); 100 % of control (dose: 12.5 mg/kg/injection, schedule: Q01DX009 (ip), vehicle: saline); 108 % of control (dose: 25.0 mg/kg/injection, schedule: Q01DX009 (ip), vehicle: saline with Tween-80); 101 % of control (dose: 50.0 mg/kg/injection, schedule: Q01DX009 (ip), vehicle: saline).
Turning to `Cc1ccc(NC(=O)c2ccc(C)c([N+](=O)[O-])c2)c(C)c1`, the T/C was 86 % of control (dose: 100.0 mg/kg/injection, schedule: Q01DX009 (sc), vehicle: olive oil, sesame oil, peanut oil); 100 % of control (dose: 100.0 mg/kg/injection, schedule: Q04DX003 (sc), vehicle: olive oil, sesame oil, peanut oil); 94 % of control (dose: 200.0 mg/kg/injection, schedule: Q01DX009 (sc), vehicle: olive oil, sesame oil, peanut oil); 105 % of control (dose: 200.0 mg/kg/injection, schedule: Q04DX003 (sc), vehicle: olive oil, sesame oil, peanut oil); 89 % of control (dose: 400.0 mg/kg/injection, schedule: Q01DX009 (sc), vehicle: olive oil, sesame oil, peanut oil); 97 % of control (dose: 400.0 mg/kg/injection, schedule: Q04DX003 (sc), vehicle: olive oil, sesame oil, peanut oil).
With `COC1CCC(CCNC(N)=O)CC1OC` (centres undefined), the T/C reads like this: (dose: 100.0 mg/kg/injection, schedule: Q04DX002 (ip), vehicle: Klucel (hydroxypropylcellulose) (HPC)) 100 % of control; (dose: 200.0 mg/kg/injection, schedule: Q04DX002 (ip), vehicle: Klucel (hydroxypropylcellulose) (HPC)) 117 % of control; (dose: 400.0 mg/kg/injection, schedule: Q04DX002 (ip), vehicle: Klucel (hydroxypropylcellulose) (HPC)) 90 % of control.
Turning to `ClC1=C(Cl)C(Cl)(Cl)SC1(Cl)Cl`, the T/C reads like this: (dose: 3.12 mg/kg/injection, schedule: Q01DX009 (ip), vehicle: acetone) 90 % of control; (dose: 6.25 mg/kg/injection, schedule: Q01DX009 (ip), vehicle: acetone) 101 % of control; (dose: 12.5 mg/kg/injection, schedule: Q01DX001 (ip), vehicle: acetone) 99 % of control; (dose: 12.5 mg/kg/injection, schedule: Q01DX009 (ip), vehicle: acetone) 96 % of control; (dose: 12.5 mg/kg/injection, schedule: Q04DX003 (ip), vehicle: acetone) 92 % of control; (dose: 25.0 mg/kg/injection, schedule: Q01DX001 (ip), vehicle: acetone) 100 % of control. Further, for the setting “dose: 50.0 mg/kg/injection, schedule: Q01DX001 (ip), vehicle: acetone”, the T/C was 99 % of control.
Regarding `CCN(C(C)=O)c1ccc([N+](=O)[O-])cc1`, the T/C reads like this: (dose: 100.0 mg/kg/injection, schedule: Q01DX001 (ip), vehicle: saline) 105 % of control; (dose: 200.0 mg/kg/injection, schedule: Q01DX001 (ip), vehicle: saline) 96 % of control; (dose: 400.0 mg/kg/injection, schedule: Q01DX001 (ip), vehicle: saline) 105 % of control.
With `COC(OC)c1nc(N)[nH]c(=O)c1Cc1ccc([N+](=O)[O-])cc1`, the T/C was 110 % of control (dose: 100.0 mg/kg/injection, schedule: Q01DX001 (ip), vehicle: Klucel (hydroxypropylcellulose) (HPC)); 102 % of control (dose: 200.0 mg/kg/injection, schedule: Q01DX001 (ip), vehicle: Klucel (hydroxypropylcellulose) (HPC)); 96 % of control (dose: 400.0 mg/kg/injection, schedule: Q01DX001 (ip), vehicle: Klucel (hydroxypropylcellulose) (HPC)).
Regarding `C=CCc1cccc(O)c1O`, the T/C (dose: 12.5 mg/kg/injection, schedule: Q04DX002 (ip), vehicle: saline with Tween-80) is 108 % of control; the T/C (dose: 25.0 mg/kg/injection, schedule: Q04DX002 (ip), vehicle: saline with Tween-80) was 96 % of control; the T/C (dose: 50.0 mg/kg/injection, schedule: Q04DX002 (ip), vehicle: saline with Tween-80) is 108 % of control.
